Marks after values point to notes of the source that are not given here.
Experiments:
[1] = parameters: species or system CD-1 mice; conditions: mouse, in vivo, iv
[2] = parameters: species or system CD-1 mice; conditions: mouse, in vivo, iv; remark: listed apart in the source
[3] = parameters: species or system CD-1 mice; conditions: mouse, in vivo; for Blood to Brain Influx Ki: iv
[4] = parameters: species or system CD-1 mice; conditions: mouse, in vivo, iv; remark: listed apart in the source
[5] = type: physicochemical; conditions: pH 7.5
[6] = Saturability of brain uptake; parameters: species or system CD-1 mice; conditions: mouse, in vivo, iv
[7] = parameters: species or system CD-1 mice; conditions: mouse, in vivo, iv; remark: listed apart in the source
[8] = in vivo; cited from earlier work

| 125I-IRA remaining intact, Serum, 10 min [1] [%] | 125I-IRA remaining intact, Serum, 60 min [1] | 125I-IRA remaining intact, Whole Brain, 10 min [1] [%] | Degradation (loss of precipitable 125I-IRA) in serum from 10 to 60 min [1] | Degradation (loss of precipitable 125I-IRA) in whole brain from 10 to 60 min [1] | Half-Time Serum Clearance t1/2 [2] [min] | Initial Volume of Distribution in Brain Vi [3] [µL/g] | Blood to Brain Influx Ki [3] | Capillary Depletion: %Parenchyma (percent of IRA reaching the brain found in parenchyma vs capillaries) [4] [%] | Lipid Solubility Partition Coefficient [5] | Log Partition Coefficient (Log P) [5] | Serum radioactivity, Without Unlabeled IRA [6] [cpm/μL] | Whole Brain brain/serum ratio, Without Unlabeled IRA [6] [µL/g] | Capillary Depletion: Capillary (capillary/serum ratio) [4] [µL/g] | Capillary Depletion: Parenchyma (parenchyma/serum ratio) [4] [µL/g] | Peak percent of injected 125I-IRA taken up per gram brain tissue (%Inj/g) [7] [%] | 125I-IRA remaining intact, Whole Brain, 60 min [1] | Substance | Percent of IRA reaching the brain trapped in the capillaries [4] [%] | Percentage of injected dose entering the brain (%Inj/g) [8] [%] |
| --- | --- | --- | --- | --- | --- | --- | --- | --- | --- | --- | --- | --- | --- | --- | --- | --- | --- | --- | --- |
| 101.2 ± 0.062 | 100.18 ± 0.244^a % | 100.1 ± 4.206 | less than 2% | less than 12% | 167.22 | 2.434 ± 0.5977 | ns | 28.7 | – | – | – | – | – | – | – | – | HAEGTFTSDVSSYLEGQAAK^aEFIAWLVRGRG-OH [Liraglutide] | 71.3 | – |
| 100.0 ± 0.031 | 98.91 ± 0.029^a % | 95.55 ± 1.139 | less than 2% | less than 12% | 149.31 | -0.340 ± 0.3285 | ns | – | 0.0353 ± 0.0016 | −1.452 ± 0.0199 | 692.1 ± 55.27 | 9.637 ± 0.308 | 0.434 ± 0.056 | -0.850 ± 0.533 | – | – | HXEGTFTSDVSSYLEGQAAK^bEFIAWLVRGRG-OH [Semaglutide] | – | – |
| 95.77 ± 0.350 | 81.20 ± 1.960^a % | 78.98 ± 3.930 | – | – | 39.61 | 1.057 ± 0.1876 | 0.3489 ± 0.0228 µL/g/min | 73.2 | 0.0052 ± 0.0049 | −2.564 ± 0.5921 | 81.33 ± 6.720 | 11.41 ± 0.528 | 0.543 ± 0.178 | 1.482 ± 0.462 | 0.15 | 52.91 ± 5.030^a % | YXEGTFTSDYSIYLDKQAAXEFVNWLLAGGPSSGAPPPSC-NH2 [Peptide 17] | – | – |
| 93.26 ± 1.110 | 73.65 ± 3.138^a % | 71.59 ± 12.14 | 19.6% | 44.9% | 42.57 | 2.186 ± 0.5638 | 0.3922 ± 0.0668 µL/g/min | 86.02 | 0.0048 ± 0.0015 | −2.325 ± 0.1318 | 65.07 ± 6.275 | 20.86 ± 1.943 | 0.637 ± 0.073 | 3.918 ± 0.993 | 0.08 | 26.71 ± 17.23^a % | YXEGTFTSDYSIYLDKQAAXEFVNWLLAGGPSSGAPPPSK-NH2 [DA3-CH] | – | – |
| 99.85 ± 0.020 | 90.78 ± 4.440% | 107.8 ± 3.37 | – | – | 32.37 | 0.2034 ± 0.1134 | ns | – | 0.2493 ± 0.0239 | −0.604 ± 0.0418 | – | 7.18 ± 0.202 | 0.764 ± 0.092 | -0.306 ± 0.219 | – | – | YXEGTFTSDYSIYLDKQAAXEFVNWLLAGGPSSGAPPPSK-NH2 [Peptide 18] | – | – |
| 85.66 ± 1.866 | 63.32 ± 1.987^a % | 69.63 ± 16.36 | – | – | 151.94 | 2.495 ± 0.8554 | 0.6680 ± 0.1089 µL/g/min | 89.7 | 0.0030 ± 0.0008 | −2.520 ± 0.1184 | 29.32 ± 2.014 | 15.10 ± 1.243 | 1.129 ± 0.597 | 9.855 ± 2.751 | 0.17 | 47.99 ± 18.71% | YXEGTFTSDYSIYLDKQAAXEFVNWLLAGGPSSGAPPPSKKKKKK-NH2 [DA-JC4] | – | – |
| – | – | – | – | – | – | – | – | – | – | – | – | – | – | – | – | – | leptin: hormone crossing the BBB, literature comparison | – | 0.171 |

| Substance | 125I-IRA remaining intact, Serum, 10 min [1] [%] | 125I-IRA remaining intact, Serum, 60 min [1] | 125I-IRA remaining intact, Whole Brain, 10 min [1] [%] | Degradation (loss of precipitable 125I-IRA) in serum from 10 to 60 min [1] | Degradation (loss of precipitable 125I-IRA) in whole brain from 10 to 60 min [1] | Half-Time Serum Clearance t1/2 [2] [min] | Initial Volume of Distribution in Brain Vi [3] [µL/g] | Blood to Brain Influx Ki [3] | Capillary Depletion: %Parenchyma (percent of IRA reaching the brain found in parenchyma vs capillaries) [4] [%] | Lipid Solubility Partition Coefficient [5] | Log Partition Coefficient (Log P) [5] | Serum radioactivity, Without Unlabeled IRA [6] [cpm/μL] | Whole Brain brain/serum ratio, Without Unlabeled IRA [6] [µL/g] | Capillary Depletion: Capillary (capillary/serum ratio) [4] [µL/g] | Capillary Depletion: Parenchyma (parenchyma/serum ratio) [4] [µL/g] | Peak percent of injected 125I-IRA taken up per gram brain tissue (%Inj/g) [7] [%] | 125I-IRA remaining intact, Whole Brain, 60 min [1] | Percent of IRA reaching the brain trapped in the capillaries [4] [%] | Percentage of injected dose entering the brain (%Inj/g) [8] [%] |
| --- | --- | --- | --- | --- | --- | --- | --- | --- | --- | --- | --- | --- | --- | --- | --- | --- | --- | --- | --- |
| YXEGTFTSDYSIYLDKQAAXEFVC ^*WLLAGGPSSGAPPPSK-NH2 [Peptide 20] | 100.16 ± 0.120 | 93.80 ± 1.850^a % | 99.4 ± 2.070 | – | – | 43 | 0.4075 ± 0.2728 | – | 43.6 | 0.0057 ± 0.0008 | −2.249 ± 0.0671 | 217.3 ± 7.176 | 9.51 ± 0.421 | 0.796 ± 0.252 | 0.615 ± 0.807 | 0.05 | – | 56.4 | – |

— PMC7606641 (Biochemical pharmacology, 2020)
